How the values were obtained:
[1] = tested on: proteasome activity of worm PDS; test: Proteasome activity of worm PDS with substrate Z-GGL-AMC; assay type: biochemical, Caenorhabditis elegans; conditions: 10 μM; wild-type worm (N2) PDS 0.5 μg/μl
Procedure: The synthetic proteasome substrate Z-GGL-AMC was used according to the manufacturer's (Calbiochem) instructions to follow proteasome activity of wild-type worms (strain N2) PDS (0.5 μg/μl).

[2] = tested on: PC12 cells
Procedure: Viability of rat adrenal pheochromocytoma (PC12) cells were discerned by the MTT assay (Bucciantini et al., Nature 416: 507, 2002), and normalized to cell survival when incubated in the absence of Aβ1-40.
Using the disaggregation assay and conditions as in B, and 72 h incubation, Aβ1-40 disaggregation samples (500 nM) were added to PC12 cell culture medium for 3 days. Cell viability was assayed by MTT metabolic activity.

Row | Compound | proteasome activity of worm PDS [1] | toxicity on PC12 cells [2]
1 | CC[C@H](C)[C@H](NC(=O)[C@H]([C@@H](C)CC)N(C)C(C)=O)C(=O)N[C@H](C(=O)N[C@@H](CC(C)C)C(=O)[C@@]1(C)CO1)[C@@H](C)O [Epoxomicin] | effectively inhibits proteasome activity | –
2 | Monomeric Aβ1-40 peptide: Aβ1-40 peptide purchased from Synpep | – | did not exhibit toxicity

Source: patent US20090208960A1, “METHODS FOR IDENTIFYNG CELLULAR MODULATORS OF DISAGGREGATION ACTIVITY OR AGGREGATION ACTIVITY IN AN ANIMAL” (priority 2006, published 2009)
